Laboratory results from patent US8853207B2 (Development Center for Biotechnology, priority 2012, dated 2014).

Molecular target: FLT3 kinase (FLT3 kinase domain alone, Upstate) (Homo sapiens (Human), UniProt P36888)
Test: FLT3 kinase assay ([33P] incorporation into substrate)
Type: biochemical
Settings: 100 μM ATP, 30° C., 30 minutes; read-out: IC50 against FLT3
Procedure: Inhibition of FLT3 kinase activity by compounds disclosed herein was quantified by measuring the amount of [^33P] incorporated into the substrate in the presence of a test compound. Briefly, a reaction mixture of 25 μL final volume containing 5 ng of FLT3 kinase (FLT3 kinase domain alone, Upstate), 5 μg of the substrate [(Poly (Glu-Tyr, 4:1), Sigma], kinase reaction buffer (20 mM MOPS pH 7.0, 1 mM EDTA, 5% glycerol, 0.01% Brij-35, 0.1% β-mercaptoethanol, 1 mg/mL BSA, 100 μM ATP, 0.1 μCi per well [^33P]-γ-ATP (2,500-3,000 Ci/mmol)), and a test compound (diluted from 9 μM to the desired final concentration by 4% DMSO) or DMSO (as the control) was incubated at 30° C. for 30 minutes. The reaction was stopped by adding 5 μL of 3% phosphoric acid solution. The resultant solution (30 μL) was later harvested by a UniFilter Plate GF/B (PerkinElmer) followed by adding 30 μL of the scintillation cocktail (MicroScint 20, PerkinElmer) to the well. The radioactivity retained on the filter membrane was measured by a luminescence counter (PerkinElmer). The results were analyzed by using linear regression software (GraphPad Prism 4; GraphPad Software Inc.).

FLT3 kinase (FLT3 kinase domain alone, Upstate), sequence (P36888 610-943): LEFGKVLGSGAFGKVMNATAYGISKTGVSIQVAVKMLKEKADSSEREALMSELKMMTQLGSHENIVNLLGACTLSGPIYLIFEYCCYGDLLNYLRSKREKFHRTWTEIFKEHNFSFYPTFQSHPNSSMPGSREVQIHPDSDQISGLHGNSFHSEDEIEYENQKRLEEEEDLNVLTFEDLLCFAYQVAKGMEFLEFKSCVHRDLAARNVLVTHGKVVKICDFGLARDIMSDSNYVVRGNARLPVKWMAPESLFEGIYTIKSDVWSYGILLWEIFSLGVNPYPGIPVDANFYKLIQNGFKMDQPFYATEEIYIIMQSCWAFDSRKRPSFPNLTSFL

Compound	IC50
6-(2-Fluoro-phenyl)-4,7-dihydro-1-thia-4,5-diaza-cyclopenta[a]pentalene [Example-41]	< 0.1 µM
6-(3-Fluoro-phenyl)-4,7-dihydro-1-thia-4,5-diaza-cyclopenta[a]pentalene [Example-38]	0.1 to 0.499 µM
6-[4-(4-Methyl-piperazin-1-yl)-phenyl]-2-pyridin-3-yl-4,7-dihydro-1-thia-4,5-diaza-cyclopenta[a]pentalene hydrochloride [Example-90]	< 0.1 µM
COc1ccc(-c2n[nH]c3c2Cc2sccc2-3)c(OC)c1 [Example-4, 6-(2,4-Dimethoxy-phenyl)-4,7-dihydro-1-thia-4,5-diaza-cyclopenta[a]pentalene]	< 0.1 µM
O=[N+]([O-])c1ccc(-c2n[nH]c3c2Cc2sccc2-3)cc1 [Example-5, 6-(4-Nitro-phenyl)-4,7-dihydro-1-thia-4,5-diaza-cyclopenta[a]pentalene]	0.1 to 0.499 µM
c1ccc(-c2n[nH]c3c2Cc2sccc2-3)cc1 [Example-6, 6-Phenyl-4,7-dihydro-1-thia-4,5-diaza-cyclopenta[a]pentalene]	0.1 to 0.499 µM
Oc1ccc(-c2ccc(-c3n[nH]c4c3Cc3sccc3-4)cc2)cc1 [Example-11, 4′-(4,7-Dihydro-1-thia-4,5-diaza-cyclopenta[a]pentalen-6-yl)-biphenyl-4-ol]	< 0.1 µM
C(=Cc1ccc(-c2n[nH]c3c2Cc2sccc2-3)cc1)c1ccccc1 [Example-12, 6-(4-Styryl-phenyl)-4,7-dihydro-1-thia-4,5-diaza-cyclopenta[a]pentalene]	> 1 µM
Nc1ccc(Nc2ccc(-c3n[nH]c4c3Cc3sccc3-4)cc2)cc1 [Example-13, N-[4-(4,7-Dihydro-1-thia-4,5-diaza-cyclopenta[a]pentalen-6-yl)-phenyl]-benzene-1,4-diamine]	0.1 to 0.499 µM
c1cncc(-c2n[nH]c3c2Cc2sccc2-3)c1 [Example-16, 6-Pyridin-3-yl-4,7-dihydro-1-thia-4,5-diaza-cyclopenta[a]pentalene]	0.1 to 0.499 µM
Clc1cc(Cl)cc(-c2ccc(-c3n[nH]c4c3Cc3sccc3-4)cc2)c1 [Example-18, 6-(3′,5′-Dichloro-biphenyl-4-yl)-4,7-dihydro-1-thia-4,5-diaza-cyclopenta[a]pentalene]	0.1 to 0.499 µM
FC(F)(F)c1ccc(-c2ccc(-c3n[nH]c4c3Cc3sccc3-4)cc2)cc1 [Example-19, 6-(4′-Trifluoromethyl-biphenyl-4-yl)-4,7-dihydro-1-thia-4,5-diaza-cyclopenta[a]pentalene]	> 1 µM
Clc1ccc(Nc2n[nH]c3c2Cc2sccc2-3)c(Cl)c1 [Example-21, (2,4-Dichloro-phenyl)-(4,7-dihydro-1-thia-4,5-diaza-cyclopenta[a]pentalen-6-yl)-amine]	0.5 to 1 µM
Ic1ccc(Nc2n[nH]c3c2Cc2sccc2-3)cc1 [Example-22, (4,7-Dihydro-1-thia-4,5-diaza-cyclopenta[a]pentalen-6-yl)-(4-iodo-phenyl)-amine]	0.1 to 0.499 µM
COc1ccc(Nc2n[nH]c3c2Cc2sccc2-3)cc1OC [Example-24, (4,7-Dihydro-1-thia-4,5-diaza-cyclopenta[a]pentalen-6-yl)-(3,4-dimethoxy-phenyl)-amine]	< 0.1 µM
Clc1cccc(Nc2[nH]nc3c2Cc2sccc2-3)c1 [Example-25, (3-Chloro-phenyl)-(4,7-dihydro-1-thia-4,5-diaza-cyclopenta[a]pentalen-6-yl)-amine]	< 0.1 µM
Brc1cc2c(s1)Cc1c(-c3ccccc3)n[nH]c1-2 [Example-27]	< 0.1 µM
Clc1ccccc1Nc1n[nH]c2c1Cc1sccc1-2 [Example-31, (2-Chloro-phenyl)-(4,7-dihydro-1-thia-4,5-diaza-cyclopenta[a]pentalen-6-yl)-amine]	0.1 to 0.499 µM
FC(F)(F)c1ccc(Nc2n[nH]c3c2Cc2sccc2-3)cc1 [Example-35, (4,7-Dihydro-1-thia-4,5-diaza-cyclopenta[a]pentalen-6-yl)-(4-trifluoromethyl-phenyl)-amine]	0.1 to 0.499 µM

Further lines, results first:

IC50	Compound
< 0.1 µM	Brc1ccc(-c2[nH]nc3c2Cc2sccc2-3)cc1 [Example-1, 6-(4-Bromo-phenyl)-5,7-dihydro-1-thia-4,5-diaza-cyclopenta[a]-pentalene]
0.1 to 0.499 µM	COc1cccc(-c2n[nH]c3c2Cc2sccc2-3)c1 [Example-3, 6-(3-Methoxy-phenyl)-4,7-dihydro-1-thia-4,5-diaza-cyclopenta[a]pentalene]
0.1 to 0.499 µM	Fc1ccc(Nc2ccc(-c3n[nH]c4c3Cc3sccc3-4)cc2)cc1 [Example-7, [4-(4,7-Dihydro-1-thia-4,5-diaza-cyclopenta[a]pentalen-6-yl)-phenyl]-(4-fluoro-phenyl)-amine]
0.1 to 0.499 µM	COc1ccc(Nc2ccc(-c3n[nH]c4c3Cc3sccc3-4)cc2)cc1 [Example-8, [4-(4,7-Dihydro-1-thia-4,5-diaza-cyclopenta[a]pentalen-6-yl)-phenyl]-(4-methoxy-phenyl)-amine]
< 0.1 µM	COc1cc(-c2ccc(-c3n[nH]c4c3Cc3sccc3-4)cc2)ccc1O [Example-9, 4′-(4,7-Dihydro-1-thia-4,5-diaza-cyclopenta[a]pentalen-6-yl)-3-methoxy-biphenyl-4-ol]
< 0.1 µM	COc1ccc(-c2ccc(-c3n[nH]c4c3Cc3sccc3-4)cc2)cc1OC [Example-14, 6-(3′,4′-Dimethoxy-biphenyl-4-yl)-4,7-dihydro-1-thia-4,5-diaza-cyclopenta[a]pent alene]
< 0.1 µM	N#Cc1ccc(-c2ccc(-c3n[nH]c4c3Cc3sccc3-4)cc2)cc1 [Example-15, 4′-(4,7-Dihydro-1-thia-4,5-diaza-cyclopenta[a]pentalen-6-yl)-biphenyl-4-carbonitrile]
0.5 to 1 µM	c1cc(-c2n[nH]c3c2Cc2sccc2-3)co1 [Example-17, 6-Furan-3-yl-4,7-dihydro-1-thia-4,5-diaza-cyclopenta[a]pentalene]
0.1 to 0.499 µM	Brc1ccc(Nc2n[nH]c3c2Cc2sccc2-3)cc1 [Example-20, (4-Bromo-phenyl)-(4,7-dihydro-1-thia-4,5-diaza-cyclopenta[a]pentalen-6-yl)-amine]
> 1 µM	COc1ccc(Nc2n[nH]c3c2Cc2sccc2-3)cc1 [Example-23, (4,7-Dihydro-1-thia-4,5-diaza-cyclopenta[a]pentalen-6-yl)-(4-methoxy-phenyl)-amine]
< 0.1 µM	COc1cccc(Nc2n[nH]c3c2Cc2sccc2-3)c1 [Example-26, (4,7-Dihydro-1-thia-4,5-diaza-cyclopenta[a]pentalen-6-yl)-(3-methoxy-phenyl)-amine]
> 1 µM	[O-][n+]1cccc(-c2n[nH]c3c2Cc2sccc2-3)c1 [Example-28, 6-(1-Oxy-pyridin-3-yl)-4,7-dihydro-1-thia-4,5-diaza-cyclopenta[a]pentalene]
< 0.1 µM	FC(F)(F)c1cccc(Nc2n[nH]c3c2Cc2sccc2-3)c1 [Example-29, (4,7-Dihydro-1-thia-4,5-diaza-cyclopenta[a]pentalen-6-yl)-(3-trifluoromethyl-phenyl)-amine]
0.1 to 0.499 µM	Fc1cccc(Nc2n[nH]c3c2Cc2sccc2-3)c1 [Example-30, (4,7-Dihydro-1-thia-4,5-diaza-cyclopenta[a]pentalen-6-yl)-(3-fluoro-phenyl)-amine]
0.1 to 0.499 µM	Clc1ccc(Nc2n[nH]c3c2Cc2sccc2-3)cc1 [Example-32, (4-Chloro-phenyl)-(4,7-dihydro-1-thia-4,5-diaza-cyclopenta[a]pentalen-6-yl)-amine]
< 0.1 µM	Brc1ccc(-c2n[nH]c3c2Cc2sc(Br)cc2-3)cc1 [Example-33, 2-Bromo-6-(4-bromo-phenyl)-4,7-dihydro-1-thia-4,5-diaza-cyclopenta[a]pentalene]
< 0.1 µM	COc1ccc(-c2n[nH]c3c2Cc2sc(Br)cc2-3)cc1 [Example-34, 2-Bromo-6-(4-methoxy-phenyl)-4,7-dihydro-1-thia-4,5-diaza-cyclopenta[a]pentalene]
0.1 to 0.499 µM	Brc1cccc(Nc2n[nH]c3c2Cc2sccc2-3)c1 [Example-36, (3-Bromo-phenyl)-(4,7-dihydro-1-thia-4,5-diaza-cyclopenta[a]pentalen-6-yl)-amine]
< 0.1 µM	Fc1cccc(Nc2ccc(-c3n[nH]c4c3Cc3sccc3-4)cc2)c1 [Example-37, [4-(4,7-Dihydro-1-thia-4,5-diaza-cyclopenta[a]pentalen-6-yl)-phenyl]-(3-fluoro-phenyl)-amine]
< 0.1 µM	Clc1cccc(-c2n[nH]c3c2Cc2sccc2-3)c1 [Example-39, 6-(3-Chloro-phenyl)-4,7-dihydro-1-thia-4,5-diaza-cyclopenta[a]pentalene]
0.1 to 0.499 µM	Fc1ccc(-c2n[nH]c3c2Cc2sccc2-3)cc1 [Example-40, 6-(4-Fluoro-phenyl)-4,7-dihydro-1-thia-4,5-diaza-cyclopenta[a]pentalene]
> 1 µM	FC(F)(F)c1ccccc1Nc1n[nH]c2c1Cc1sccc1-2 [Example-42, (4,7-Dihydro-1-thia-4,5-diaza-cyclopenta[a]pentalen-6-yl)-(2-trifluoromethyl-phenyl)-amine]
> 1 µM	FC(F)(F)c1cc(-c2n[nH]c3c2Cc2sccc2-3)cc(C(F)(F)F)c1 [Example-43, 6-(3,5-Bis-trifluoromethyl-phenyl)-4,7-dihydro-1-thia-4,5-diaza-cyclopenta[a]pen talene]
